Experimental data taken from patent US20200354426A1 (MEDIMMUNE LIMITED, priority 2016, published 2020).
Read-outs that look alike come from different tables or passages of the source. Numbered stars: 1 amine (or outer) side, 2 acyl side, 3 side chain; on linkers, the order of the positions; unused ones are H or OH. Side chains are listed from the residue outwards. Peptide text beside a SMILES is read from it. * marks the point of attachment. γGlu = O=C(O)[C@H](CCC(=O)[*:2])N[*:1]; Palmitoyl = CCCCCCCCCCCCCCCC(=O)*

Assays:
[1] = Stability testing of peptides in plasma; format: in vitro ADME, mouse
Procedure: (§1) The stability in plasma of the peptideS […], […], […] and […] was determined as follows. […] The spiked plasma samples were gently mixed and allowed to equilibrate for about 5 minutes before start of experiment. The plasma samples were incubated for 48 hours in a GalaxyR CO2 incubator at 37° C. […] The samples were stored at -70° C. until analysis. Plasma samples were assayed as follows. […] After mixing and centrifugation, 100 μl the supernatant was transferred to a new plate and 1 μl was injected onto an analytical column. The analysis was performed using a μLC-system ([…]) coupled to a medium high resolution mass spectrometer (Perkin Elmer PenTOF) with positive electrospray ionisation. […] Flow: 0.1 ml/min using a slow reversed phase gradient. […] Cleavage products arise from the action of the protease DPP IV in plasma. Both the degradation of the peptides and formation of peptide products were reported in percentage of the initial peptide concentration. Peaks were integrated and % remaining peptide was calculated: […] Levels of deamidation and DPP IV cleavage were low for […] and […].

[2] = target: T1, Human GlucR (Homo sapiens, UniProt P47871); test: cAMP assay in 4.4% human serum albumin (assay 2); format: cell-based
T1 construct: expressed in transfected cells
T1 sequence (P47871 26-477): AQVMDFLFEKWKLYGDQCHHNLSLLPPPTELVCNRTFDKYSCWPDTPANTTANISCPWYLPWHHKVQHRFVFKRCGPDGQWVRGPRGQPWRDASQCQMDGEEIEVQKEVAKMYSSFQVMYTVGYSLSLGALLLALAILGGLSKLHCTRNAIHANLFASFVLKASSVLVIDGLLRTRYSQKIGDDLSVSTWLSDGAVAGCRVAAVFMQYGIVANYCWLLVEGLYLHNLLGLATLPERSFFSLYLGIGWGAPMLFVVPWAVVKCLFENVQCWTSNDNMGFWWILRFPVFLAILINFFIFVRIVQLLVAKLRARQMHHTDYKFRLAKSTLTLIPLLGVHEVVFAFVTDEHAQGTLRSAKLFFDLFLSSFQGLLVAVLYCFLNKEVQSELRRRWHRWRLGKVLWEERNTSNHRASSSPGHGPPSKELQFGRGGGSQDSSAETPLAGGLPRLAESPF
Procedure: Cryopreserved cell stocks were prepared in 1× cell freezing medium-DMSO serum free (Sigma Aldrich) at 2×10^7/vial and stored at −80° C. […] Peptides were serially diluted in DMSO and then diluted 100 fold into DMEM containing serum albumin at stated final concentration. […] Cells were added to the assay plates and incubated for 30 min at room temperature. Following incubation the assay was stopped and cAMP levels measured using the HTRF® dynamic d2 cAMP assay kit available from CisBio Bioassays, as per the manufacture's guidelines. Plates were read on Perkin Elmer ENVISION® fluorescence plate readers. Human and rat serum albumin were purchased from Sigma Aldrich and mouse serum albumin from Equitech Bio Ltd.
Data was transformed to % Delta F as described in manufacturer's guidelines and analysed by 4-parameter logistic fit to determine EC50 values. […] For instance. […] To compare the balance of activities at the GLP1R and GlucR between different peptides and across different conditions, these can be correlated using the calculation below, where the EC50's are related to those of the natural ligands.

[3] = Stability testing of peptides in plasma; format: in vitro ADME, rat
Procedure: as §1

[4] = Peptide solubility in isotonic formulations (A280); format: physicochemical
Procedure: Default Formulation (DF)=0.1 M Tris pH 7.5, 150 mM Mannitol. Final formulation pH=7.2 • 2. Back up formulation t (BF)=0.05M Tris, 50 mM Arginine/Proline. Final formulation pH=9.0 • 3. […] Final formulation pH=7.0

[5] = tested on: diet induced obesity (DIO) mouse model; test: Diet induced obesity (DIO) mouse model, study B; format: in vivo; conditions: for HOMA / BeHy / FGF21 / Hepatic TG / Plasma Cholesterol / Plasma TG: day 14
Source text: Female C57/B16JHsdOla (obtained from Harlan Laboratories. UK) were started on a high fat diet of D12492 (Research Diets, NJ, USA) and a chocolate confection, delicato ball (Delicata Bakverk, Sweden) at 9-11 weeks of age, and were maintained on the diet for 16 weeks prior to arrival to the animal facility, during a three week acclimation period and during drug treatment, caloric content of the two components of the diet is shown in Table 11. The mice were divided into 9 groups (n=5-6), and treatment was started at 29 weeks of age.
The body weight of the animals was monitored daily throughout the dosing period. At day 14, blood samples for the measurement of plasma glucose and insulin from conscious mice were obtained after a 4-hour fasting period. Mice were then anaesthetized using isoflourane and terminal blood was collected from the capillary bed behind the eye. The following parameters were measured: blood chemistry measurements of triglycerides, total cholesterol, non-esterified fatty acids (NEFA), beta-hydroxybutyrate and fibroblast growth factor 21 (FGF21) (Table 16 and Table 17 below).

CCCCCCCCCCCCCCCC(=O)N[C@@H](CCC(=O)NCCCC[C@H](NC(=O)[C@H](CCCCN)NC(=O)[C@H](CO)NC(=O)[C@H](Cc1ccc(O)cc1)NC(=O)[C@H](CC(=O)O)NC(=O)[C@H](CO)NC(=O)[C@@H](NC(=O)[C@H](Cc1ccccc1)NC(=O)[C@@H](NC(=O)CNC(=O)[C@H](CCC(N)=O)NC(=O)[C@H](CO)NC(=O)[C@@H](N)Cc1c[nH]cn1)[C@@H](C)O)[C@@H](C)O)C(=O)N[C@@H](CC(C)C)C(=O)N[C@@H](CC(=O)O)C(=O)N[C@@H](CO)C(=O)N[C@@H](CCC(=O)O)C(=O)N[C@@H](CCCNC(=N)N)C(=O)N[C@@H](C)C(=O)N[C@@H](CCCNC(=N)N)C(=O)N[C@@H](CC(=O)O)C(=O)N[C@@H](Cc1ccccc1)C(=O)N[C@H](C(=O)N[C@@H](C)C(=O)N[C@@H](Cc1c[nH]c2ccccc12)C(=O)N[C@@H](CC(C)C)C(=O)N[C@H](C(=O)N[C@@H](C)C(=O)NCC(=O)NCC(N)=O)C(C)C)C(C)C)C(=O)O [Peptide G730] (H-HSQGTFTSDYSKK([γGlu-Palmitoyl])LDSERARDFVAWLVAGG-NH2; N-terminus assumed)
% +1 DPP cleaved product [1]: 5%
% +1 prod [1]: 15%
% DPP cleaved product [1]: 14%
remaining at 24 h, 2 μmol/L ([1]; mouse plasma, 37° C., 24 h, read-out: % stable peptide): 65%
EC50 [2]: 0.402 nM
Human GlucR/GLP1R Ratio ([2]; relative potency GlucR / relative potency GLP1R vs natural ligands): 0.122
% +1 prod [3]: 58%
% DPP cleaved product/+1 DPP cleaved product [3]: 2%
remaining at 24 h, 2 μmol/L ([3]; rat, plasma): 24%
solubility ([4]; Default Formulation (DF), isotonic, DF = 0.1 M Tris pH 7.5, 150 mM Mannitol): ≥ 5000 µg/mL
Formulation Concentration ([4]; Formulation DF, by A280 nm): 5 mg/mL
10 mg/ml solubility (BF2) ([4]; yes/no): no

L-Histidyl-L-seryl-L-glutaminylglycyl-L-threonyl-L-phenylalanyl-L-threonyl-L-seryl-L-alpha-aspartyl-(N6-[N-(1-oxohexadecyl)-L-gamma-gutamyl])L-lysy-L-sery-L-alpha-glutamyl-L-tyrosyl-L-leucyl-L-alpha-aspartyl-L-seryl-L-alpha-glutamyl-L-arginyl-L-alanyl-L-arginyl-L-alpha-L-aspartyl-L-phenylalanyl-L-valyl-L-alanyl-L-tryptophyl-L-leucyl-L-alpha-glutamyl-L-alanylglycylglycine [Peptide G933]
BW day 14 (% change of vehicle mean) ([5]; 5 nmol/kg sc twice daily 14 days): −11%
HOMA ([5]; 5 nmol/kg sc twice daily): 3.31
BW day 14 (% change of vehicle mean) ([5]; 10 nmol/kg sc twice daily 14 days): −19%
HOMA ([5]; 10 nmol/kg sc twice daily): 1.98
body weight over the 14 day dosing period ([5]; DIO mice, FIGS. 5-8): dose dependent and continuous weight loss
BeHy ([5]; dose in Table 17: 5 nmol/kg): 593.56 µmol/L
FGF21 ([5]; dose in Table 17: 5 nmol/kg): 4459 pg/mL
Hepatic TG ([5]; dose in Table 17: 5 nmol/kg): 14.7 g TB/100 g tissue
Plasma Cholesterol ([5]; dose in Table 17: 5 nmol/kg): 2.32 mM
Plasma TG ([5]; dose in Table 17: 5 nmol/kg): 0.16 mM
BeHy ([5]; dose in Table 17: 50 nmol/kg): 673.08 µmol/L
FGF21 ([5]; dose in Table 17: 50 nmol/kg): 2582 pg/mL
Hepatic TG ([5]; dose in Table 17: 50 nmol/kg): 13.3 g TB/100 g tissue
Plasma Cholesterol ([5]; dose in Table 17: 50 nmol/kg): 2.88 mM
Plasma TG ([5]; dose in Table 17: 50 nmol/kg): 0.39 mM
